Test results: patent US20250000859A1, “USE OF GCN2 INHIBITORS IN TREATING CANCER” (Alesta Therapeutics BV, priority 2021, published 2025)
Like-named read-outs stand apart in the source and are kept apart here.

What was measured:
HT29 spheroids = experiment: Tumor spheroid growth, live-cell imaging (Example C); format: cell-based; conditions: ASS1-low HT29 spheroids, 0-20 μM, up to 120 hours
Method: (§1) The growth of tumor spheroids was evaluated following treatment of cells with Compound 1, Compound 2. Briefly, HT29 or HCT116 cells were seeded at 5,000 cells/well in ultra-low attachment round-bottom 96-well plates, in 100 μL SILAC DMEM Flex media without phenol red, supplemented with 10% fetal bovine serum (FBS), 1 g/L glucose, 2 mM glutamine, 220 μM lysine, and 64 μM arginine. The plates were centrifuged for 10 minutes at 125×g and put in a humidified incubator at 37° C. for 3 days before the onset of the experiment to allow spheroids to form.
(§2) Three days after seeding, 0-20 μM Compound 1, 0-20 μM Compound 2, or […] vehicle control (0.1% DMSO), were added together with the Nuclear-ID Red DNA Stain (1:100,000; ENZO Life Sciences) to detect live cells. Plates were placed in live-cell imaging and analysis platform (e.g., IncuCyte ZOOM®; 15 Essenbio) set up in a humidified incubator at 37° C. and scanned every 4 hours for up to 120 hours, at 10× magnification, to determine the relative spheroid size and cell death. Experiments were performed in quadruplicate and analyzed using live-cell imaging and analysis software (e.g., IncuCyte ZOOM® 2018A software; Essenbio).

HCT116 spheroids = experiment: as above; format: cell-based; conditions: ASS1-high HCT116 spheroids, 0-20 μM, up to 120 hours
Method: as §1, §2

HT29 cells [1] = experiment: EdU incorporation (Example I); format: cell-based; conditions: HT29 cells (low ASS1), arginine 6.25-100 μM
Method: (§3) EdU incorporation levels of cancer cell lines was evaluated following treatment with compound 1, compound 2, compound 3, or vehicle control (0.1% DMSO). Briefly, HT29 and HCT116 cells were seeded at 2,500 cells/well in 96 well plates in 100 μl SILAC DMEM flex media without phenol red, supplemented with 10% dialyzed fetal bovine serum (dFBS), 1 g/l glucose, 2 mM glutamine, 220 μM Lysine, and various concentrations of arginine (6.25 μM, 12.5 μM, 25 μM, and 100 μM). The cells were put in a humidified incubator at 37° C. for 24 hours. The next day compounds were added to the cells at a concentration of […]. At day 3, cells were incubated with 10 μM EdU for 24 hours. The next day EdU positive cells were labeled using the Click-it reaction cocktail per manufacturing protocol using Amplex UltraRed Dye. Fluorescence was measured using a microplate reader using filter sets appropriate for Amplex™ UntraRed reagent (ex 568 nm and em 585 nm).

HCT116 cells [2] = experiment: EdU incorporation (Example I); format: cell-based; conditions: HCT116 cells (high ASS1), arginine 6.25-100 μM
Method: as §3

A498 (ASS1low) cells = experiment: Relative cell viability, Nuclear-ID Red / Annexin V staining (Example E); format: cell-based; conditions: 16 μM arginine, 4 days
Method: (§4) To assess the effectiveness of Compound 1 and Compound 2: A^498 (ASS1low) and 769-P (ASS1high) cells were seeded at a density of 2000 cells/well in 96-well plates in RPMI medium with 16 μM arginine, 1 g/L glucose, 2 mM L-glutamine, and 10% FCS and allowed to adhere overnight.
(§5) Cells were then treated with increasing amounts of the indicated compounds for 4 days. Afterward, cell viability was determined by staining the nuclei of the living cells with NUCLEAR-IDR Red DNA stain (Enzo Life Sciences) and the apoptotic/death cells with Annexin V CF488A (Biotium) and scanning the plates with an IncuCyte S3 instrument. Viable cells were classified as Nuclear-ID Red high and Annexin V CF488A low and relative viability was expressed as a percentage of the total number of cells/well.

769-P (ASS1high) cells = experiment: as above; format: cell-based; conditions: 16 μM arginine, 4 days
Method: as §4, §5

[3] = test system: Renca, CT26, MC38, B16F10 tumor cells; experiment: In vivo tumor models, tumor volume (Example J); parameters: species or system BALB/c or C57BL/6 mice; conditions: for inhibition in tumor volume compared to control: Compound 1: 30 mg/kg p.o. BID, Compound 2: 20 mg/kg p.o. BID, endpoint day 11-20 depending on model
Method: Effect of GCN2 inhibition on in vivo xenograft tumor models of various ASS1 low cancer models was evaluated following treatment with compound 1, compound 2, or vehicle control. Briefly, 1,000,000 tumor cells with a total volume of 100 μl were injected into the rear flank region of 6-8 week old BALB/c or C57BL/6 female mice. The following tumor cell lines were tested: renica (renal adenocarcinoma), CT26 (colon cancer), MC 38 (colon adenocarcinoma), B16F10 (melanoma) When tumors reached a size of approximately […], mice were treated orally (PBS, 10 μl/g, i.p., twice weekly (BIW); Compound 1: 30 mg/kg, 10 μl/g, p.o., twice daily (BID); or Compound 2: 20 mg/kg, 10 μl/g, p.o., BID). Tumor volumes were measured every 3-4 days. Endpoint measurements as presented were measured at day 20 (Renca), day 14 (CT26), day 17 (MC38), and day 11 (B16F10).

HT29 cells [4] = experiment: Growth of colonies/spheroids in soft agar, 5 days (Example G); format: cell-based; conditions: HT29 cells (ASS1 low), 64 μM arginine, read-out: IC50, growth inhibition
Method: (§6) The growth of tumor spheroids was evaluated following treatment with Compound 2. Briefly, HT29 cells were seeded at 2,000 cells/well and HCT116 cells were seeded at 1,000 cells/well in ultra-low attachment round bottom 96-well plates in soft agar with 100 μl SILAC DMEM flex media without phenol red, supplemented with 10% Dialyzed fetal bovine serum (dFBS), 1 g/l glucose, 2 mM glutamine, 220 μM Lysine, and 64 μM arginine. Various concentrations of compound 2 (1.37 nM, 4.11 nM, 12.3 nM, 37 nM, 111 nM, 333 nM, and 1000 nM) were added. Plates were placed in a humidified incubator at 37° C. and incubated for 5 days, allowing colonies to form. At endpoint, images were taken by light microscopy (3 images per well) and analyzed using ImageJ software.

HCT116 cells [5] = experiment: as above; format: cell-based; conditions: Homo sapiens, HCT-116, 120 h, HCT116 cells (ASS1 high), 64 μM arginine, read-out: IC50, growth inhibition
Method: as §6

A498 cells = experiment: Cell viability, ATPlite luminescence (Example H); format: cell-based; conditions: A498 cells (low ASS1)
Method: The viability of cancer cell lines was evaluated following treatment with compound 2. Briefly, 769P and A498 cells were seeded at 100-6,400 cells/well in 96 well plates in 100 μl SILAC DMEM flex media without phenol red, supplemented with 10% dialyzed fetal bovine serum (dFBS), 1 g/l glucose, 2 mM glutamine, 220 μM Lysine, and 64 μM arginine. The cells were put in a humidified incubator at 37° C. for 24 hours. The next day compounds were added at various concentrations. At the end of the experiment, ATPlite 1 Step™ (Perkin Elmer) solution was added to each well and shaken for 2 minutes. After incubation of 10 min in the dark, luminescence was recorded on a Envision Multimode Reader to determine cell viability.

Compound | spheroid growth compared to DMSO-treated spheroids (HT29 spheroids) | spheroid growth (HCT116 spheroids) | EdU labeling (HT29 cells [1]) | EdU labeling (HCT116 cells [2]) | relative cell viability (A498 (ASS1low) cells) | relative cell viability (769-P (ASS1high) cells) | reduction in tumor volume compared to control ([3]; 30 mg/kg p.o. BID, Renca, CT26, MC38, B16F10, FIG. 9A) | inhibition in tumor volume compared to control [3] | IC50 (HT29 cells [4]) | IC50 (HT29 cells [4]; Homo sapiens, HT-29, 120 h) | IC50 (HCT116 cells [5]) | cell death (percent viability vs untreated cells) (A498 cells)
COc1ncc(Cl)cc1S(=O)(=O)Nc1ccc(F)c(-c2ccc3nc(N)ncc3c2)c1F [Compound 1] | significantly reduces spheroid growth in a dose-dependent manner | does not reduce spheroid growth | cause significantly higher levels of EdU labeling | have a smaller effect on EdU labeling | significantly reduces relative cell viability in a dose-dependent manner | did not significantly relative cell viability | 60-70% | caused a significant inhibition in tumor volume compared to control | – | – | – | –
Nc1ncc2cc(-c3c(F)ccc(NS(=O)(=O)c4cc(Cl)ccc4Cl)c3F)ccc2n1 [Compound 2] | significantly reduces spheroid growth in a dose-dependent manner | does not reduce spheroid growth | cause significantly higher levels of EdU labeling | have a smaller effect on EdU labeling | significantly reduces relative cell viability in a dose-dependent manner | did not significantly relative cell viability | – | caused a significant inhibition in tumor volume compared to control | 51.4 nM | 52.4 nM | 1330 nM | resulted in a significant level of cell death
Nc1ncc(C#Cc2c(F)ccc(NS(=O)(=O)c3cc(Cl)cc(CO)c3Cl)c2F)cn1 [Compound 3] | – | – | cause significantly higher levels of EdU labeling | have a smaller effect on EdU labeling | – | – | – | – | – | – | – | –
